# In patent US6555550B1, “Musarinic agonists and antagonists” (UCB, S. A.,, priority 1998, dated 2003):
# Tests used:
# Female CD-1 mice [1] = assay: Tail-flick assay; format: in vivo; conditions: injection, % MPE, 10-second cut-off; for ED50: Mus musculus
# Text: The tail flick assay is a commonly used animal model of analgesia. It is a stringent enough assay such that opiates (e.g., morphine) show activity in this model, whereas the non-steroidal antiinflammatories (NSAD's) such as ibuprofen are ineffective. As such, it is a useful assay system for investigating the utility of novel compounds for the treatment of severe and chronic pain.
# Female CD-1 mice, weighing 20-30 grams were obtained from Charles River laboratories (Wilmington, Mass., USA). A commercially available tail-flick analgesia meter was used (Model TF-6 Analgesia Meter, Emdie Instrument Co., Maidens, Va.). […] A 10-second cut-off time was used as the maximum latency to avoid damage to the mice tails. The latency of each mouse (a mean of two separate test results for each time-point), was obtained at 0 (immediately prior to dosing), 5, 15, 30, and 60 min. time-points after injection of compounds and the % Maximum Possible Effect (% MPE) was calculated by using the formula, % MPE=[(postdrug latency−predrug latency)÷(cutoff time−predrug latency)]×100.
# Female CD-1 mice [2] = assay: Sedation by visual inspection; format: in vivo; conditions: at tail-flick ED50 dose
# Text: Sedation was noted by close visual inspection of the animal.
# Female CD-1 mice [3] = assay: Body temperature (rectal probe); format: in vivo; conditions: at tail-flick ED50 dose; core temperature
# Description: At ambient temperature, a temperature probe (type T Thermocouple Thermometer, BAT-10; Physitemp Inc., Clifton, N.J.) was inserted 1.0 cm into the rectum of mice to measure their core temperature and recorded at 0 (before drug as a control baseline), 10, 25 and 55 min after injection of compounds.
# cloned human M4 mAChRs = biological target: T1, cloned human M4 mAChRs (Homo sapiens, UniProt P08173); assay: Binding to cloned human M4 mAChRs expressed in CHO-Kl cells; conditions: 2.5 nM 3H-oxotremorine M, CHO-Kl M4 membranes, pH 7
# T1 construct: expressed in transfected cells; host or cells: CHO-K1 cells (membrane preparation)
# T1 sequence (P08173 1-479): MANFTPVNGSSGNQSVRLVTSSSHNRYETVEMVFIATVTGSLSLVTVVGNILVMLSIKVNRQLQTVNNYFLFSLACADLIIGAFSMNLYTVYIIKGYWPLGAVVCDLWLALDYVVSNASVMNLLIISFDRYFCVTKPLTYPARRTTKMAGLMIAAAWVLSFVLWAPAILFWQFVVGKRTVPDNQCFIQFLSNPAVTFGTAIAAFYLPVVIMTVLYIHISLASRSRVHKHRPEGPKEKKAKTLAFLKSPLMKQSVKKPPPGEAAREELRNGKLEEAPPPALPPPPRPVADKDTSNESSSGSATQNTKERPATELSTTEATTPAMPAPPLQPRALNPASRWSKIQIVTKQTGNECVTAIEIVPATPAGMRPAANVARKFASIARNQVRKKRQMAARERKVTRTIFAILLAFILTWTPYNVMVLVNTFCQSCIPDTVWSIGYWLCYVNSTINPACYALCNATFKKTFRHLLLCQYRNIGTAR
# Description: Binding to Cloned Human M4 […] Expressed in CHO-Kl Cells
# The following protocol was used to detect binding to cloned human M4 mAChRs expressed in CHO-Kl cells.
# A membrane preparation was made from CHO-Kl cells expressing human M4 mAChRs. Aliquots of membrane were stored at −70° C. until thawed on the day of assay. For each assay, CHO-Kl M4 membrane preparation (approximately 20 μg of protein) was incubated with test compound and 2.5 nM ^3H-oxotremorine M (DuPont, NEN) in 20 mM HEPES buffer, pH 7 in an assay volume of 200 μl. Assays were incubated in 96-well polypropylene plates for 40 minutes at room temperature. Nonspecific binding was determined in samples incubated in parallel in the presence of 10 μM atropine (Sigma) instead of test compound. The incubations were terminated by rapid vacuum filtration using a Packard plate harvester through 96-well Whatman GF/B filter plates presoaked in 0.5% polyethylenimine. The filter plate was washed rapidly four times with 0.2 ml aliquots of water. The plate was dried by placing under a heat lamp for 5 minutes. The plate was counted using a Packard scintillation counter after addition of 35 μl Microscint 20 scintillation fluid. Data were analyzed by nonlinear regression analysis.
# Results from this assay are used to show the ability of compounds of this invention to bind to the agonist binding site of the muscarinic M4 receptor. Compounds which bind to this site have specific utility in the treatment of pain, schizophrenic disorders and cognitive disorders such as AD.
SMILES,ED50 (Female CD-1 mice [1]) [mg/kg],Side Effect Profile at ED50 Dose: Sedation (Female CD-1 mice [2]),Side Effect Profile at ED50 Dose: Hypothermia (Female CD-1 mice [3]) [°C],Human M4 in CHO-K1 Assay (cloned human M4 mAChRs) [nM],Tail-Flick ED50 (Female CD-1 mice [1]) [mg/kg]
"CCCOc1nsnc1C1C2CC3CC1CN(C3)C2 (stereo not shown) [Cmpd 12, 3-(5-azatricyclo[3.3.1.1<3,7>]dec-2-yl)-4-propoxy-1,2,5-thiadiazole]",4.5,Slight,1.0,0.74,
"C(CC1CC1)Oc1nsnc1C1C2CC3CC1CN(C3)C2 (stereo not shown) [Cmpd 25, 3-(5-azatricyclo[3.3.1.1<3,7>]dec-2-yl)-4-(cyclopropylethoxy)-1,2,5-thiadiazoles]",,Slight,1.5,,4.5
"CCCCOc1nsnc1C1C2CC3CC1CN(C3)C2 (stereo not shown) [Cmpd 13, 3-(5-azatricyclo[3.3.1.1<3,7>]dec-2-yl)-4-butoxy-1,2,5-thiadiazole]",,,,10,
"CCCOc1nsnc1C1C2CC3CC1CN3C2 (stereo not shown) [Cmpd 36, 4-(3-Azatricyclo[3.3.1.0<3,7>]non-9-yl)-3-propyloxy-1,2,5-thiadiazoles]",,,,3.2,>5
"COc1nsnc1C1C2CC3CC1CN(C3)C2 (stereo not shown) [Cmpd 21, 3-(5-azatricyclo[3.3.1.1<3,7>]dec-2-yl)-4-methoxy-1,2,5-thiadiazoles]",,No sedation,0,5.9,>5
"CCCCOc1nsnc1C1C2CC3CC1CN(C3)C2 (stereo not shown) [Cmpd 14, 3-(5-azatricyclo[3.3.1.1<3,7>]dec-2-yl)-4-butoxy-1,2,5-thiadiazole]",> 10,Slight,2.0,3.8,
"Clc1nsnc1C1C2CC3CC1CN(C3)C2 (stereo not shown) [Cmpd 7, 3-(5-Azatricyclo[3.3.1.1<3,7>]dec-2-yl)-4-chloro-1,2,5-thiadiazole]",,,,>88,
"CC(C)COc1nsnc1C1C2CC3CC1CN(C3)C2 (stereo not shown) [Cmpd 18, 3-(5-azatricyclo[3.3.1.1<3,7>]dec-2-yl)-4-(2-methyl-propoxy)-1,2,5-thiadiazole]",> 5,No sedation,0,,
"C1CC1CSc1nsnc1C1C2CC3CC1CN(C3)C2 (stereo not shown) [Cmpd 32, 3-(5-Azatricyclo[3.3.1.1<3,7>]dec-2-yl)-4-(cyclopropylmethyl)thio-1,2,5-thiadiazole]",< 1,Sedation,<2,,
"CC(C)COc1nsnc1C1C2CC3CC1CN3C2 (stereo not shown) [Cmpd 38, 4-(3-Azatricyclo[3.3.1.0<3,7>]non-9-yl)-3-isobutyloxy-1,2,5-thiadiazoles]",,,,,>5
"CCSc1nsnc1C1C2CC3CC1CN(C3)C2 (stereo not shown) [Cmpd 30, 3-(5-Azatricyclo[3.3.1.1<3,7>]dec-2-yl)-4-ethylthio-1,2,5-thiadiazole]",0.3,Sedation,1,,
"C1CC1COc1nsnc1C1C2CC3CC1CN(C3)C2 (stereo not shown) [Cmpd 16, 3-(5-azatricyclo[3.3.1.1<3,7>]dec-2-yl)-4-(cyclopropylmethoxy)1,2,5-thiadiazole]",1.4,Sedation,1.5,<1.4,
"CCC(C)Oc1nsnc1C1C2CC3CC1CN(C3)C2 (stereo not shown) [Cmpd 27, 3-(5-azatricyclo[3.3.1.1<3,7>]dec-2-yl)-4-(1-methyl-propoxy)-1,2,5-thiadiazoles]",,No sedation,0,1.55,>5
"CCCCSc1nsnc1C1C2CC3CC1CN(C3)C2 (stereo not shown) [Cmpd 31, 3-(5-Azatricyclo[3.3.1.1<3,7>]dec-2-yl)-4-butylthio-1,2,5-thiadiazole]",0.3,No sedation,0,,
"CCCSc1nsnc1C1C2CC3CC1CN(C3)C2 (stereo not shown) [Cmpd 29, 3-(5-Azatricyclo[3.3.1.1<3,7>]dec-2-yl)-4-propylthio-1,2,5-thiadiazoles]",,Very slight,0.5,,<1
"CCOc1nsnc1C1C2CC3CC1CN(C3)C2 (stereo not shown) [Cmpd 23, 3-(5-azatricyclo[3.3.1.1<3,7>]dec-2-yl)-4-ethoxy-1,2,5-thiadiazoles]",,No sedation,0.5,0.46,1.5
"CCOc1nsnc1C1C2CC3CC1CN3C2 (stereo not shown) [Cmpd 34, 4-(3-Azatricyclo[3.3.1.0<3,7>]non-9-yl)-3-ethoxy-1,2,5-thiadiazoles]",,,,4.6,>2
